Data published in US20250163119A1, “COMPOUNDS FOR THE TREATMENT OF DIABETES OR OBESITY” (Eli Lilly and Company, priority 2023, published 2025).
*1 amine or outer side, *2 acyl side, *3 side chain or, on linkers, in order; H or OH if unused. Where a SMILES comes first, the peptide text is derived from it. Side-chain parts run from the residue outwards. [ ]: non-standard residue; d: D form. The star is where a group is joined. C20 diacid = O=C(O)CCCCCCCCCCCCCCCCCCC(=O)*; γGlu = O=C(O)[C@H](CCC(=O)[*:2])N[*:1]; εLys = N[C@@H](CCCCN[*:1])C(=O)[*:2]; pGlu = O=C1CC[C@@H](C(=O)O)N1; αMeL = CC(C)C[C@](C)(N)C(=O)O; Dap = NC[C@H](N)C(=O)O; AEEA = NCCOCCOCC(=O)O; Aib = CC(C)(N)C(=O)O

Tests used:
[1] = biological target: T1, human CRHR2 (Homo sapiens, UniProt Q13324); assay: Human CRHR2 cAMP assay (HTRF) in HEK293 cells stably expressing human CRHR2; assay type: cell-based; conditions: HEK293 cells overexpressing human CRHR2; relative EC50, maximum 10 nM human UCN2; mean ± SE; read-out: hCRHR2 cAMP EC50 (pM, ± SE)
T1 construct: expressed in transfected cells
T1 sequence (Q13324 1-438 isoform Q13324-2): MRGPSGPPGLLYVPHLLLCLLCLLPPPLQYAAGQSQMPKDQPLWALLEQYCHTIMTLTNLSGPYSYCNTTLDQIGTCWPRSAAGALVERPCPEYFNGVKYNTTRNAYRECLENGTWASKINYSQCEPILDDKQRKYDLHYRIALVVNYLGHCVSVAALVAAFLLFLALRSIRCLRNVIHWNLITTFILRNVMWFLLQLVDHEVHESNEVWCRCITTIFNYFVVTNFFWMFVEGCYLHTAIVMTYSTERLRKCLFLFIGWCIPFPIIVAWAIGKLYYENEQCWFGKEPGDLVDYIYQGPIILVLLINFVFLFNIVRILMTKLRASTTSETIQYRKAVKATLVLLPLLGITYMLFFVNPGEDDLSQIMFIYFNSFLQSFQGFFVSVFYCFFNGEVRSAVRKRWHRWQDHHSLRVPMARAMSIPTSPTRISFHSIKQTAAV
Experimental: (§1) The corticotropin-releasing hormone (CRH) receptor 1 and 2 (CRHR1 and CRHR2) are GPCRs that were functionally coupled to Gs proteins. Stimulation of these receptors results in an increased production of intracellular cAMP, which can be detected using standard in vitro technologies. In vitro activity of peptides was measured by the amount of cAMP formed in human CRHR1 and CRHR2 overexpressed cells.
(§2) Human CRHR1 and CRHR2 receptors were stably expressed in human embryonic kidney cells (HEK293) under control of a pcDNA expression vector. The HEK293 cell line was cultured in DMEM 1× (Gibco, 93-0152DK) supplemented with 10% FBS, 1 mM sodium pyruvate, 1×MEM NEAA, 1× GlutaMAX and 10 mM HEPES. The plasmids of human CRHR1-pQCXIP (T7364) and human CRHR2b-R2683puro (T16761) DNA were transfected into HEK293 cells using Lipo fectAMINE 3000 Transfection reagent (Invitrogen, L3000001). After 20 days under selection, the mRNA levels from different clones were measured to confirm the expression of human CRHR1 and CRHR2 genes. To determine the function of over-expressed CRHR cells, the intracellular cAMP levels in response to human UCN1 and UCN2 were measured and compared to the expression of CRHR1 and CRHR2 mRNA in each clone.
(§3) Human CRHR1 cells were cultured in DMEM 1× (Gibco, 93-0152DK) supplemented with 10% FBS, 1 mM sodium pyruvate, 1×MEM NEAA, 1×GlutaMAX, 10 mM HEPES, and 800 μg/ml G418. Human CRHR2 cells were cultured at the same media (DMEM 1×, 10% FBS, 1 mM sodium pyruvate, 1×MEM NEAA, 1×GlutaMAX, 10 mM HEPES) in the presence of 0.5 ug/mL puromycin. Cultured cells were grown to 90% confluency and harvested. The cells were frozen at 10×10e6/ml in a mixture of […] fetal bovine serum plus 7% DMSO and stored in liquid nitrogen until use.
(§4) On the day of the assay, the frozen cells were thawed and diluted in assay buffer (Phenol Red free MEM (Corning, 17-305-CV, lot #32121010), 0.1% Casein (Sigma C4765, lot #SLCG2120), 5 mM HEPES pH 7.4 containing 0.25 mM IBMX). 10 ul of human CRHR1 cells (25,000 cells) or 10 μL of human CRHR2 cells (5,000 cells) were dispensed into each well of white poly-D-lysine coated 384-well plates (Corning cat #354661). Test compounds diluted in DMSO were added (200 nL/well) in a 1:3 dilution series using ECHO acoustic liquid handler (Beckman). The mixture of cells and test compounds were incubated at 37° C. for 1 hour for the hCRHR1 plate, while the CRHR2 plates were incubated at room temperature for 30 min.
(§5) The amount of intracellular cAMP was quantitated using HTRF technology (Homogeneous Time Resolved Fluorescence; Cisbio) as per vendor instructions. Briefly, 10 uL CAMP-d2 conjugate and 10 uL anti-CAMP-cryptate conjugate in lysis buffer were incubated with the treated cells at room temperature for 60 min. The HTRF signal was immediately detected using an Envision plate reader (Perkin-Elmer) to calculate the ratio of fluorescence at 665 to 620 nm.
(§6) Raw fluorescence data for concentration curves of the peptides in Table 2 and Table 3 were converted to cAMP amount (pmol/well) using a cAMP standard curve generated for each experiment.

[2] = biological target: T2, human CRHR1 (Homo sapiens, UniProt P34998); assay: Human CRHR1 cAMP assay (HTRF) in HEK293 cells stably expressing human CRHR1; assay type: cell-based; conditions: HEK293 cells overexpressing human CRHR1; relative EC50, maximum 66 nM human UCN1; mean ± SE; read-out: hCRHR1 cAMP EC50 (pM, ± SE)
T2 construct: expressed in transfected cells
T2 sequence (P34998 24-415): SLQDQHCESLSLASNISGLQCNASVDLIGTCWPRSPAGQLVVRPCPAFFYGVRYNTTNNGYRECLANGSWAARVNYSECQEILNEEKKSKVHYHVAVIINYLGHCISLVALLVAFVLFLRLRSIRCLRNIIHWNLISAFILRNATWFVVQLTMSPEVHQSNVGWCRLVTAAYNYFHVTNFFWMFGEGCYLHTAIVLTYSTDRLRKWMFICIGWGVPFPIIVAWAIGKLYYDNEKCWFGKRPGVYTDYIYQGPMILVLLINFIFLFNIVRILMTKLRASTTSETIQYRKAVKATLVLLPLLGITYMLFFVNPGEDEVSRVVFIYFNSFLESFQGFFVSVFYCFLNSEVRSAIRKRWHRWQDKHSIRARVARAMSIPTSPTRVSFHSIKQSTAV
Experimental: as §1, §2, §3, §4, §5, §6

In the case of “Ac-GSPSIVTS[αMeL]DVPT[Aib][αMeL]LQKILEQERAEKARQQAK([AEEA-Pro-Lys-Glu-γGlu-C20 diacid])EAAEILAQV-NH2 [SEQ ID NO: 3, Ac-GSPSIVTS αMeL DVPT Aib αMeL LQKILEQERAEKARQQAK((2-[2-(2-Amino-ethoxy)-ethoxy]-acetyl)-PKE-γE-CO-(CH2)18-CO2H)EAAEILAQV-NH2]”, the EC50 [1] is reported as 18.3 ± 2.1 pM and the EC50 [2] is reported as over 1e+07 pM.
With “Ac-PPPIVTS[αMeL]D[dV]PT[Aib][αMeL]LQKLLEQERAEKARQQAK([γGlu-AEEA-εLys-C20 diacid])EAAEILAQV-NH2 [SEQ ID NO: 47, Ac-PPPIVTS αMeL D (D-Val) PT Aib αMeL LQKLLEQERAEKARQQAK(γE-(2-[2-(2-Amino-ethoxy)-ethoxy]-acetyl)-ϵK-CO-(CH2)18-CO2H)EAAEILAQV-NH2]” the EC50 [1] was 17.5 ± 2.2 pM and the EC50 [2] was 2.3e+06 pM.
“[pGlu]GSPSGIVTS[αMeL]DVPT[Aib][αMeL]LQKILEQERAEKARQQAKEAAEILAQV-NH2 [SEQ ID NO: 23]” was tested, and the EC50 [1] was 28.9 ± 1.2 pM and the EC50 [2] was over 1e+07 pM.
In the case of `CC[C@H](C)[C@H](NC(C)=O)C(=O)N[C@H](C(=O)N[C@H](C(=O)N[C@@H](CO)C(=O)N[C@@](C)(CC(C)C)C(=O)N[C@@H](CC(=O)O)C(=O)N[C@@H](C(=O)N1CCC[C@H]1C(=O)N[C@H](C(=O)NCC(=O)N[C@@](C)(CC(C)C)C(=O)N[C@@H](CC(C)C)C(=O)N[C@@H](CCC(N)=O)C(=O)N[C@H](C(=O)N[C@@H](CCCCN)C(=O)N[C@@H](CC(C)C)C(=O)N[C@@H](CCC(=O)O)C(=O)N[C@@H](CCC(N)=O)C(=O)N[C@@H](CCC(=O)O)C(=O)N[C@@H](CCCNC(=N)N)C(=O)N[C@@H](C)C(=O)N[C@@H](CCC(=O)O)C(=O)N[C@@H](CCCCN)C(=O)N[C@@H](C)C(=O)N[C@@H](CCCNC(=N)N)C(=O)N[C@@H](CCC(N)=O)C(=O)N[C@@H](CCC(N)=O)C(=O)N[C@@H](C)C(=O)N[C@@H](CCCCNC(=O)CC[C@H](NC(=O)COCCOCCNC(=O)[C@@H](N)CCCCNC(=O)CCCCCCCCCCCCCCCCCCC(=O)O)C(=O)O)C(=O)N[C@@H](CCC(=O)O)C(=O)N[C@@H](CC(N)=O)C(=O)N[C@H](C(=O)N[C@@H](CCC(=O)O)C(=O)N[C@H](C(=O)N[C@@H](CC(C)C)C(=O)N[C@@H](C)C(=O)N[C@@H](CCC(N)=O)C(=O)N[C@H](C(N)=O)C(C)C)[C@@H](C)CC)[C@@H](C)O)[C@@H](C)CC)[C@@H](C)O)C(C)C)[C@@H](C)O)C(C)C` [SEQ ID NO: 36, Ac-IVTS αMeL D (D-Val) PTG αMeL LQIKLEQERAEKARQQAK(γE-(2-[2-(2-Amino-ethoxy)-ethoxy]-acetyl)-ϵK-CO-(CH2)18-CO2H)ENTEILAQV-NH2] (Ac-IVTS[αMeL]D[dV]PTG[αMeL]LQIKLEQERAEKARQQAK([γGlu-AEEA-εLys-C20 diacid])ENTEILAQV-NH2), the EC50 [1] is reported as 4.4 ± 0.4 pM.
In the case of `CC[C@H](C)[C@H](NC(C)=O)C(=O)N[C@H](C(=O)N[C@H](C(=O)N[C@@H](CO)C(=O)N[C@@](C)(CC(C)C)C(=O)N[C@@H](CC(=O)O)C(=O)N[C@@H](C(=O)N1CCC[C@H]1C(=O)N[C@H](C(=O)NCC(=O)N[C@@](C)(CC(C)C)C(=O)N[C@@H](CC(C)C)C(=O)N[C@@H](CCC(N)=O)C(=O)N[C@H](C(=O)N[C@@H](CCCCN)C(=O)N[C@@H](CC(C)C)C(=O)N[C@@H](CCC(=O)O)C(=O)N[C@@H](CCC(N)=O)C(=O)N[C@@H](CCC(=O)O)C(=O)N[C@@H](CCCNC(=N)N)C(=O)N[C@@H](C)C(=O)N[C@@H](CCC(=O)O)C(=O)N[C@@H](CCCCN)C(=O)N[C@@H](C)C(=O)N[C@@H](CCCNC(=N)N)C(=O)N[C@@H](CCC(N)=O)C(=O)N[C@@H](CCC(N)=O)C(=O)N[C@@H](C)C(=O)N[C@@H](CCCCNC(=O)CC[C@H](NC(=O)[C@@H](N)CCCCNC(=O)COCCOCCNC(=O)CCCCCCCCCCCCCCCCCCC(=O)O)C(=O)O)C(=O)N[C@@H](CCC(=O)O)C(=O)N[C@@H](CC(N)=O)C(=O)N[C@H](C(=O)N[C@@H](CCC(=O)O)C(=O)N[C@H](C(=O)N[C@@H](CC(C)C)C(=O)N[C@@H](C)C(=O)N[C@@H](CCC(N)=O)C(=O)N[C@H](C(N)=O)C(C)C)[C@@H](C)CC)[C@@H](C)O)[C@@H](C)CC)[C@@H](C)O)C(C)C)[C@@H](C)O)C(C)C` [SEQ ID NO: 37, Ac-IVTS αMeL D (D-Val) PTG αMeL LQIKLEQERAEKARQQAK(γE-ϵK-(2-[2-(2-Amino-ethoxy)-ethoxy]-acetyl)-CO-(CH2)18-CO2H)ENTEILAQV-NH2] (Ac-IVTS[αMeL]D[dV]PTG[αMeL]LQIKLEQERAEKARQQAK([γGlu-εLys-AEEA-C20 diacid])ENTEILAQV-NH2), the EC50 [1] is reported as 5 ± 0.2 pM.
Work on `CC[C@H](C)[C@H](NC(C)=O)C(=O)N[C@H](C(=O)N[C@H](C(=O)N[C@@H](CO)C(=O)N[C@@](C)(CC(C)C)C(=O)N[C@@H](CC(=O)O)C(=O)N[C@@H](C(=O)N1CCC[C@H]1C(=O)N[C@H](C(=O)NCC(=O)N[C@@](C)(CC(C)C)C(=O)N[C@@H](CC(C)C)C(=O)N[C@@H](CCC(N)=O)C(=O)N[C@H](C(=O)N[C@@H](CCCCN)C(=O)N[C@@H](CC(C)C)C(=O)N[C@@H](CCC(=O)O)C(=O)N[C@@H](CCC(N)=O)C(=O)N[C@@H](CCC(=O)O)C(=O)N[C@@H](CCCNC(=N)N)C(=O)N[C@@H](C)C(=O)N[C@@H](CCC(=O)O)C(=O)N[C@@H](CCCCN)C(=O)N[C@@H](C)C(=O)N[C@@H](CCCNC(=N)N)C(=O)N[C@@H](CCC(N)=O)C(=O)N[C@@H](CCC(N)=O)C(=O)N[C@@H](C)C(=O)N[C@@H](CCCCNC(=O)[C@@H](N)CCCCNC(=O)CC[C@H](NC(=O)COCCOCCNC(=O)CCCCCCCCCCCCCCCCCCC(=O)O)C(=O)O)C(=O)N[C@@H](CCC(=O)O)C(=O)N[C@@H](CC(N)=O)C(=O)N[C@H](C(=O)N[C@@H](CCC(=O)O)C(=O)N[C@H](C(=O)N[C@@H](CC(C)C)C(=O)N[C@@H](C)C(=O)N[C@@H](CCC(N)=O)C(=O)N[C@H](C(N)=O)C(C)C)[C@@H](C)CC)[C@@H](C)O)[C@@H](C)CC)[C@@H](C)O)C(C)C)[C@@H](C)O)C(C)C` [SEQ ID NO: 35, Ac-IVTS αMeL D (D-Val) PTG αMeL LQIKLEQERAEKARQQAK(ϵK-γE-(2-[2-(2-Amino-ethoxy)-ethoxy]-acetyl)-CO-(CH2)18-CO2H)ENTEILAQV-NH2] (Ac-IVTS[αMeL]D[dV]PTG[αMeL]LQIKLEQERAEKARQQAK([εLys-γGlu-AEEA-C20 diacid])ENTEILAQV-NH2) yielded an EC50 [1] of 5.3 ± 0.9 pM.
Molecule “{C20 diacid}-[Dap][AEEA][γGlu]GSPSIVTS[αMeL]DVPT[Aib][αMeL]LEKILEQERAEKARQQATEAAEILAQV-NH2 [SEQ ID NO: 52]” has an EC50 [1] of 6.6 ± 0.5 pM.
